Results as given in patent US20170240556A1, “BIFLUORODIOXALANE-AMINO-BENZIMIDAZOLE KINASE INHIBITORS FOR THE TREATMENT OF CANCER, AUTOIMMUNEINFLAMMATION AND CNS DISORDERS” (4SC DISCOVERY GMBH, priority 2012, published 2017).

Key:
[1] = target: Casein kinase 1 delta (CSKN1D) (Homo sapiens, UniProt P48730); test: Casein kinase assay, CK1 delta; format: biochemical; conditions: recombinant CSKN1D 5 nM, ATP 10 μM
[2] = test system: Hedgehog signaling pathway; test: Hedgehog reporter assay (Gli Reporter - NIH3T3 Cell Line); format: cell-based; conditions: Mus musculus; Gli reporter NIH3T3 cells, murine SHH stimulation, 24 h; read-out: HH Assay
Description: In order to investigate the potency of test compounds to inhibit the Hedgehog signaling pathway, a Gli-Reporter assay was performed.
The “Gli Reporter—NIH3T3 Cell Line” contains the firefly luciferase gene under the control of Gli responsive elements stably integrated into murine NIH3T3 cells (cells purchased from Amsbio). The luciferase expression correlates with activation of the hedgehog signaling pathway. This cell line is validated for its response to stimulation with murine Sonic Hedgehog and to treatment with inhibitors of the hedgehog signaling pathway. A multiplexed viability assay was used to discriminate inhibition on the pathway activity from cell toxicity.
Growth Medium: DMEM, 10% Calf Serum, 1% Penicillin/Streptomycin 500 μg/ml Geneticin (G418 Stock 50 mg/ml).
25.000 cells per well were seeded into a white 96 well plate in 100 μl growth medium and incubated over night at 37° C. and 5% CO2. After removing the supernatant the test compounds and controls (known GLI inhibitor, e.g. GANT-61) were added in different concentrations in a final volume of 45 μl and incubated for 1 h at 37° C. and 5% CO2. For the stimulation of the Hedgehog pathway 5 μl of 10 μg/ml concentrated murine sonic hedgehog (SHH) was added to the cells. A final concentration of 1 μg/ml mSHH and 0.1% DMSO was reached per well. After incubation for 24 h at 37° C. the cells were investigated for viability and reporter activity.
Viability: For the determination of the viability of the treated cells the CellTiter-Fluor Kit from Promega was used. Essentially, only proteases of viable cells are able to cleave the cell-permeant substrate Gly-Phe-AFCoumarin (GF-AFC). By this cleavage the fluorescent AFC is set free and can be detected in a fluorescence reader. For this assay 10 μl of GF-AFC substrate (CellTiter-Fluor, Promega #G6082) was diluted in 2 ml assay buffer from the CellTiter-Fluor Kit and 10 μl of this dilution was added per well to the cells and incubated for 30 min at 37° C. The fluorescence was measured with excitation at 380-400 nm and emission at 505 nm.
Reporter activity: The firefly luciferase reporter activity was detected with the ONE-Glo™ Luciferase Assay System from Promega. For this assay 50 μl ONE-Glo luciferase reagent (Promega #E6120, contains cell lysis buffer and luciferin) was added to each well and incubated at room temperature for 5 min. Luminescence was detected in a plate reader and served as a degree for reporter activity.

[3] = target: Casein kinase 1 epsilon (CSKN1E) (Homo sapiens, UniProt P49674); test: Casein kinase assay, CK1 epsilon; format: biochemical; conditions: recombinant CSKN1E 30 nM, ATP 10 μM
[4] = test system: Wnt/β-catenin signaling pathway; test: Wnt reporter assay (CellSensor LEF/TCF-bla FreeStyle 293F cells); format: cell-based; conditions: Homo sapiens; LEF/TCF-bla 293F cells, LiCl and mWnt3a stimulation
Description: The Wnt reporter assay was performed in stably transfected human HEK293 cells. Wnt signaling was induced by administration of Wnt3a protein and read out by β-Lactamase mediated cleavage of CCF4-AM and subsequent fluorescent detection.
CellSensor LEF/TCF-bla FreeStyle 293F cells (invitrogen #K1677) contain a beta-lactamase reporter gene under control of the β-catenin/LEF/TCF binding elements stably integrated into FreeStyle 293F cells. This cell line can be used to detect antagonists of the Wnt/β-catenin signaling pathway when stimulated by mouse Wnt3a or LiCl. The detection of beta-lactamase is possible with LiveBLAzer FRET—B/G Loading Kit (invitrogen #K1095) with CCF4-AM as subtrate.
Culture Medium: DMEM Medium +10% dialyzed FBS (PAN 2102-P290310), +1% NEAA (PAA M11-003), +1% P/S (Penicillin/Streptomycin, PAA P11-010) +25 mM HEPES (PAA S11-001), +5 μg/ml Blasticidin (PAA P05-017).
Cells (CellSensor LEF/TCF-bla FreeStyle 293F, invitrogen K1677) were split with Culture Medium to reach a confluence at the beginning of the assay of 80-90%.
At start of the assay, cells were harvested from culture and resuspend in assay medium at density of 0,66*10̂6 cells/ml. Subsequently, 60μ1 cell suspension were pipetted in each well of a Poly-D-Lysine 96 well Plate (BD #354640, vertical rows are marked 1 through 12, horizontal lanes are marked A through H),
Plates were subsequently incubated at 37° C. for at least 2 h.
To stimulate with Wnt3a, overnight prestimulation of Wnt signalling pathway with LiCl is necessary. Subsequently, an 8M aqueous LiCl solution was diluted 1:200 in assay medium, and 30 μl of said diluted LiCl solution was plated into the appropriate wells (see below pipetting scheme). Plates were then incubated at 37° C. over night.
Subsequently, compounds and controls were prepared as follows: mWnt3a (R&D 1324-WN, dissolved in PBS+0.1% BSA to 40 μg/ml) was diluted 1:100 in assay medium (=400 ng/ml). Compounds (Cpd) were diluted to a concentration of 10 mM in DMSO to prepare dilution series in assay medium (final concentrations 30 μM, 10 μM, 3 μM, 1 μM, 0.3 μM, 0.1 μM, 0.03 μM and 0.01 μM), which were pipetted into the appropriate wells (see below pipetting scheme). For each dilution of each compound, 3 replicates were tested. Final DMSO concentration was 0.3%.
LiCl and mWnt3a stimulated cells were used as High control (HC), unstimulated cells were used as low control, a blank was prepared from cell free medium plus mWnt3a, and a functional control was prepared with a known Wnt inhibitor (e.g. PKF118-310), final concentrations were as above.
Subsequently, the well was incubated for 5 h at 37° C.
At t=23 hours, FRET reagent mix (Loading Kit with CCF4-AM, Life Technologies #K1096) was prepared; per plate: 138 μl Solution B, 13.8 μl FRET-reagent, and 2300 μl Solution C. 24 μl FRET reagent mix were plated to each well, subsequently plates were incubated for at least 2 h in the dark (it is possible to incubate over night). Subsequently, plates were measured in the BMG FluorStar® plate reader at an emission waveltengths of 460 and 520 nm and with an excitation wavelength of 405 nm.
To determine potential cytotoxicity of the compounds, plates were centrifuge and the supernatant was discarded by dumping the plates. Subsequently, 100 μl Opti-MEM and 50 μl ViaLight (Lonza #LT07-321) Lysis Buffer were added to each well, followed by incubation for 10 min at room temperature (25° C.). Subsequently, 100 μl ViaLight reagent were added to each well, followed by incubation for 2 min at room temperature (25° C.) in the dark. Optionally, 200 μl of the obtained suspension were transferred to a white 96 well plate. The luminescence was measured with a Tecan Ultra plate reader.

Chain of Casein kinase 1 epsilon (CSKN1E) (P49674 whole entry): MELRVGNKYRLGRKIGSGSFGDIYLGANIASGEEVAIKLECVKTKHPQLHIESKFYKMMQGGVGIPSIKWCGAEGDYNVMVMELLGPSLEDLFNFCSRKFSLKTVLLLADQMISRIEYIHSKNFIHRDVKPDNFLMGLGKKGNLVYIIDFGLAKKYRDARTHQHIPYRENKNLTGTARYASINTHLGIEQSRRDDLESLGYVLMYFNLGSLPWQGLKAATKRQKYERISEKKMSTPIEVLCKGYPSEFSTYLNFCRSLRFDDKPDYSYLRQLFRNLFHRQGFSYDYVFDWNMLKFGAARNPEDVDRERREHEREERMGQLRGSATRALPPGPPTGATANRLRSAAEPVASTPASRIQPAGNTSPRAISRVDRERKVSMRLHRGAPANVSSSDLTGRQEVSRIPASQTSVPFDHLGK
Chain of Casein kinase 1 delta (CSKN1D) (P48730 whole entry): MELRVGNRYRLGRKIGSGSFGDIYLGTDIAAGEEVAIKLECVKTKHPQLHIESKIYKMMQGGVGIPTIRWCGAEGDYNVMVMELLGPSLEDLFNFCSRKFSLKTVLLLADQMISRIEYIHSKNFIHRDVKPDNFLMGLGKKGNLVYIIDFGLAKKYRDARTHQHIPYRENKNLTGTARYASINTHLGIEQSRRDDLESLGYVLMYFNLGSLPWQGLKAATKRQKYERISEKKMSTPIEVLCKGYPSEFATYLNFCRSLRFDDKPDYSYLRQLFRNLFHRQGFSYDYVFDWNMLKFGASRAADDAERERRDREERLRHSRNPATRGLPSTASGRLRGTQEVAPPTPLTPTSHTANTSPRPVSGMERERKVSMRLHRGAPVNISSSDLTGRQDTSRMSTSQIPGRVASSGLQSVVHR

Row | Compound | IC50 [1] [nM] | IC50 [2] [nM] | IC50 [3] [nM] | IC50 [4] [nM]
1 | O=C(Nc1nc2cc3c(cc2[nH]1)OC(F)(F)O3)c1cccc(-n2cnnn2)c1 [Compound 149, N-(2,2-difluoro-5H-[1,3]dioxolo[4′,5′:4,5]benzo[1,2-d]imidazol-6-yl)-3-(1H-tetrazol-1-yl)benzamide] | < 200 | 1000 to 15000 | < 200 | 5000 to 20000
2 | O=C(Nc1nc2cc3c(cc2[nH]1)OC(F)(F)O3)c1cccc(-c2ncc[nH]2)c1 [Compound 140, N-(2,2-difluoro-5H-[1,3]dioxolo[4′,5′:4,5]benzo[1,2-d]imidazol-6-yl)-3-(1H-imidazol-2-yl)benzamide] | < 200 | 500 to 1000 | < 200 | < 5000
3 | Cc1nnnn1-c1cccc(C(=O)Nc2nc3cc4c(cc3[nH]2)OC(F)(F)O4)c1 [Compound 148, N-(2,2-difluoro-5H-[1,3]dioxolo[4′,5′:4,5]benzo[1,2-d]imidazol-6-yl)-3-(5-methyl-1H-tetrazol-1-yl)benzamide] | < 200 | – | < 200 | < 5000
4 | COc1cc(C(=O)Nc2nc3cc4c(cc3[nH]2)OC(F)(F)O4)ccc1N [Compound 9B, 4-amino-N-(2,2-difluoro-5H-[1,3]dioxolo[4′,5′:4,5]benzo[1,2-d]imidazol-6-yl)-3-methoxybenzamide] | < 200 | ≤ 500 | – | < 5000
5 | Cc1nc(-c2cccc(C(=O)Nc3nc4cc5c(cc4[nH]3)OC(F)(F)O5)c2)no1 [Compound 137, N-(2,2-difluoro-5H-[1,3]dioxolo[4′,5′:4,5]benzo[1,2-d]imidazol-6-yl)-3-(5-methyl-1,2,4-oxadiazol-3-yl)benzamide] | < 200 | 500 to 1000 | < 200 | < 5000
